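Test compounds were applied to cells in 96-well plates for 48 hours at 5 doses. GI50 marks 50% less growth. TGI is the concentration that stops growth completely.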

For orientation: TGI means the concentration giving total growth inhibition. For orientation: GI50 means the concentration that inhibits growth by half.

Test systems include CCRF-CEM leukemia; KM12 colon; SNB-75 CNS; SF-268 CNS; COLO 205 colon; NCI-H522 lung; HOP-62 NSCLC; SF-295 CNS; HOP-92 NSCLC.
Holding throughout (assay): DTP human tumour cell line panel, 48 h

As for `CS(=O)(=O)OC1CCC2(C#N)CCC1C2=O` (stereo not given), the TGI in the assay with CCRF-CEM leukemia, with KM12 colon, in the assay with SNB-75 CNS, in the assay on SF-268 CNS, in the assay on COLO 205 colon and in the assay with NCI-H522 lung was more than 100 µM each time. Also, the total growth inhibition concentration (TGI) with HOP-62 NSCLC and with SF-295 CNS was more than 100 µM in each case.
On to `O=[N+]([O-])c1ccc(C[P+](c2ccccc2)(c2ccccc2)c2ccccc2)cc1`, for which the TGI with CCRF-CEM leukemia, in the assay with KM12 colon, in the assay with SNB-75 CNS, in the assay on COLO 205 colon, in the assay on NCI-H522 lung and with HOP-62 NSCLC was more than 100 µM each time. Also, the TGI with SF-295 CNS is more than 100 µM.
As to `CC1=C(C(=O)Nc2cc(=O)n(C)c(=O)n2C)C(c2ccco2)C(C(=O)Nc2cc(=O)n(C)c(=O)n2C)=C(C)N1`, the concentration for total growth inhibition (TGI) in the assay with CCRF-CEM leukemia, in the assay on KM12 colon, with SNB-75 CNS, in the assay with SF-268 CNS, with COLO 205 colon and in the assay with NCI-H522 lung was more than 100 µM in each case. The TGI in the assay with HOP-62 NSCLC, in the assay with SF-295 CNS and in the assay on HOP-92 NSCLC was more than 100 µM each time.
Consider `CC1(C)O[C@H]2[C@H](O)C[C@](O)(CO)C[C@H]2O1`, for which the total growth inhibition concentration (TGI) in the assay on KM12 colon, in the assay on SNB-75 CNS, with COLO 205 colon, with NCI-H522 lung, with SF-295 CNS and with HOP-92 NSCLC was more than 100 µM throughout.
As for `CCc1ccccc1NC(=O)C1=C(C)NC(C)=C(C(=O)Nc2ccccc2CC)C1c1ccccc1Cl`, the concentration for total growth inhibition (TGI) in the assay on CCRF-CEM leukemia, in the assay with KM12 colon, with SNB-75 CNS, with SF-268 CNS, in the assay with COLO 205 colon and in the assay on NCI-H522 lung was more than 100 µM each time. The concentration for total growth inhibition (TGI) in the assay with HOP-62 NSCLC, in the assay with SF-295 CNS and in the assay with HOP-92 NSCLC was more than 100 µM each time.
Regarding `Cc1c2ccncc2c(C)c2c1[nH]c1ccc(OC(C)C)cc12`, the TGI in the assay on CCRF-CEM leukemia came out at 7.68 µM; in the assay with KM12 colon, 2.86 µM; with SNB-75 CNS it was 3.36 µM; in the assay with SF-268 CNS, 3.07 µM; in the assay with COLO 205 colon, 2.81 µM; in the assay with NCI-H522 lung, 3.06 µM. In addition, the figures for the TGI in the assay with HOP-62 NSCLC, in the assay on SF-295 CNS and in the assay with HOP-92 NSCLC were 2.66 µM, 2.73 µM and 3.22 µM, respectively.
For the molecule `O=C(O)CCC(=O)N1c2ccccc2CC1c1c[nH]c2ccccc12` (stereo not given), the TGI with CCRF-CEM leukemia, with KM12 colon, in the assay with SNB-75 CNS, in the assay with SF-268 CNS, in the assay on COLO 205 colon and with NCI-H522 lung was more than 100 µM throughout. Also, the TGI in the assay on HOP-62 NSCLC, in the assay with SF-295 CNS and in the assay on HOP-92 NSCLC was more than 100 µM each time.
As to `CC1=C(c2ccccc2)C(c2ccccc2)=C(c2ccccc2)C2(c3ccccc3)C(=O)C(C)CN12` (stereo not given), the total growth inhibition concentration (TGI) in the assay with KM12 colon is more than 100 µM; in the assay on SNB-75 CNS, 64.5 µM; in the assay on SF-268 CNS it was more than 100 µM; in the assay on NCI-H522 lung, 72.4 µM; in the assay on HOP-62 NSCLC it was more than 100 µM; in the assay on SF-295 CNS it was 37.7 µM.
Turning to `O=C1N(C2CCCCC2)CC12CCCCC2`, the TGI with CCRF-CEM leukemia, in the assay on SNB-75 CNS, in the assay with SF-268 CNS, with COLO 205 colon, in the assay on NCI-H522 lung and in the assay with HOP-62 NSCLC was more than 100 µM each time. Besides, in the assay on HOP-92 NSCLC, the concentration for total growth inhibition (TGI) was more than 100 µM.
With `Cc1nnn[n-]1.N.N.N.N.N.[Cl-].[Co+3]`, the GI50 in the assay on CCRF-CEM leukemia, in the assay on KM12 colon, in the assay with SNB-75 CNS, in the assay with SF-268 CNS, with COLO 205 colon and in the assay on NCI-H522 lung was more than 100 µM each time. In addition, the GI50 in the assay on HOP-62 NSCLC, with SF-295 CNS and with HOP-92 NSCLC was more than 100 µM throughout. Further, the total growth inhibition concentration (TGI) in the assay with CCRF-CEM leukemia, in the assay with KM12 colon, with SNB-75 CNS, with SF-268 CNS, with COLO 205 colon and in the assay on NCI-H522 lung was more than 100 µM throughout. Besides, the TGI with HOP-62 NSCLC, with SF-295 CNS and in the assay on HOP-92 NSCLC was more than 100 µM each time.
In the case of `O=C(O)C1=C(O)C(C(=O)O)C23CCCCCCCCCCC12C(C(=O)O)C(O)=C3C(=O)O` (stereo not given), the TGI with CCRF-CEM leukemia, with KM12 colon, in the assay on SF-268 CNS, with COLO 205 colon, in the assay with NCI-H522 lung and in the assay on SF-295 CNS was more than 100 µM each time. In the assay with HOP-92 NSCLC, this molecule returned a concentration for total growth inhibition (TGI) of more than 100 µM.
Consider `COc1cc(Br)c(C=Nc2cccc3cc(OC)c(OC)cc23)cc1OC`, for which the TGI in the assay with CCRF-CEM leukemia was more than 100 µM; in the assay on KM12 colon, more than 100 µM; in the assay on SNB-75 CNS, 59 µM; with SF-268 CNS, more than 100 µM; in the assay on COLO 205 colon, more than 100 µM; in the assay on NCI-H522 lung, more than 100 µM. The TGI is more than 100 µM with HOP-62 NSCLC, 73.4 µM with SF-295 CNS and 98.1 µM in the assay on HOP-92 NSCLC.
As for `O/N=C1/C(=C/c2ccc3c(c2)OCO3)CCCC1C(NO)c1ccc2c(c1)OCO2` (stereo not given), the total growth inhibition concentration (TGI) is 53 µM in the assay on CCRF-CEM leukemia; 43.6 µM in the assay with KM12 colon; 80.1 µM with SNB-75 CNS; more than 100 µM in the assay on SF-268 CNS; 64.9 µM in the assay on COLO 205 colon; 40.2 µM with NCI-H522 lung. The same molecule showed a TGI in the assay on HOP-62 NSCLC of 53.7 µM.
Take `O=C(O)CCCSC(=O)Nc1ccc(N=Nc2ccccc2)cc1`: the TGI with CCRF-CEM leukemia, with KM12 colon, in the assay with SF-268 CNS, with COLO 205 colon, with NCI-H522 lung and in the assay with HOP-62 NSCLC was more than 100 µM in each case. Also, the TGI with SF-295 CNS is more than 100 µM.
On to `C=CCNC(=O)N(CCCCC(NC(C)=O)C(=O)NCc1ccccc1)Cc1ccccc1` (stereo not given), for which the total growth inhibition concentration (TGI) in the assay on CCRF-CEM leukemia, in the assay with KM12 colon, in the assay with SNB-75 CNS, with SF-268 CNS, with COLO 205 colon and in the assay with NCI-H522 lung was more than 100 µM in each case. The TGI with HOP-62 NSCLC, in the assay on SF-295 CNS and in the assay on HOP-92 NSCLC was more than 100 µM each time.
Turning to `COc1ccc(C23C(=O)c4ccccc4N2O[C@H]2C(=O)N(c4ccccc4)C(=O)[C@H]23)cc1` (stereo not given in full), the concentration for total growth inhibition (TGI) is more than 100 µM with CCRF-CEM leukemia; more than 100 µM in the assay with KM12 colon; more than 100 µM with SNB-75 CNS; more than 100 µM with SF-268 CNS; more than 100 µM in the assay with COLO 205 colon; 87.3 µM in the assay with NCI-H522 lung. Besides, the TGI in the assay with HOP-62 NSCLC, with SF-295 CNS and with HOP-92 NSCLC was more than 100 µM in each case.
Regarding `CCCCCCCCCCCc1nnc(N)o1`, the TGI with KM12 colon, in the assay on SNB-75 CNS, in the assay on SF-268 CNS, in the assay on COLO 205 colon, in the assay on NCI-H522 lung and in the assay with HOP-62 NSCLC was more than 100 µM throughout. The TGI with SF-295 CNS and in the assay with HOP-92 NSCLC was more than 100 µM each time.
Take `COC(=O)CC1C[C@H](C#N)N(C(=O)c2ccccc2)C[C@@H]1CC[N+](=O)[O-]` (stereo not given in full): the TGI in the assay on CCRF-CEM leukemia, in the assay with KM12 colon, in the assay with SNB-75 CNS, in the assay with SF-268 CNS, in the assay on COLO 205 colon and in the assay with HOP-62 NSCLC was more than 100 µM throughout. Besides, the TGI with SF-295 CNS and with HOP-92 NSCLC was more than 100 µM in each case.
With `COc1ccc(/C=N/N=C(\N)NO)cc1O`, the total growth inhibition concentration (TGI) with CCRF-CEM leukemia was more than 100 µM; in the assay on KM12 colon, more than 100 µM; in the assay with SF-268 CNS, more than 100 µM; in the assay with COLO 205 colon it was more than 100 µM; in the assay on HOP-92 NSCLC, 64.2 µM.
As to `N.N.N.N.N.NC(=O)c1nn[n-]n1.[Cl-].[Co+3]`, the GI50 in the assay on CCRF-CEM leukemia, with KM12 colon, with SNB-75 CNS, in the assay with SF-268 CNS, in the assay with COLO 205 colon and with HOP-62 NSCLC was more than 100 µM each time. For the same molecule, the GI50 in the assay on SF-295 CNS and in the assay on HOP-92 NSCLC was more than 100 µM each time. The TGI in the assay with CCRF-CEM leukemia, in the assay with KM12 colon, with SNB-75 CNS, with SF-268 CNS, with COLO 205 colon and with HOP-62 NSCLC was more than 100 µM each time. Further, the concentration for total growth inhibition (TGI) in the assay on SF-295 CNS and in the assay with HOP-92 NSCLC was more than 100 µM in each case.
As for `COC(=O)NC(=O)c1cn(C2OC(CO)C(O)C2O)c(=O)[nH]c1=O` (stereo not given), the total growth inhibition concentration (TGI) with KM12 colon, with SNB-75 CNS, in the assay on SF-268 CNS, in the assay with COLO 205 colon, in the assay with NCI-H522 lung and in the assay with HOP-62 NSCLC was more than 100 µM throughout. Moreover, the concentration for total growth inhibition (TGI) in the assay with SF-295 CNS and in the assay with HOP-92 NSCLC was more than 100 µM in each case.
Turning to `Cc1cccc(/C=C/c2c(C(=O)/C=C/c3ccccc3)c(C)nc3ccccc23)c1`, the GI50 in the assay on CCRF-CEM leukemia is 1.33 µM; with KM12 colon, 1.72 µM; in the assay on SNB-75 CNS, 1.42 µM; in the assay with COLO 205 colon, 1.81 µM; in the assay on HOP-62 NSCLC, 1.75 µM; in the assay with SF-295 CNS, 1.89 µM. Moreover, the GI50 in the assay on HOP-92 NSCLC is 1.48 µM. In addition, the TGI with CCRF-CEM leukemia is more than 100 µM; in the assay with KM12 colon it was 3.56 µM; in the assay on SNB-75 CNS, 2.95 µM; with COLO 205 colon, 4.34 µM; in the assay with HOP-62 NSCLC it was 3.48 µM; with SF-295 CNS, 3.73 µM. This molecule also displayed a TGI in the assay with HOP-92 NSCLC of 4 µM.
